This passage reports CC50 results from paper PMC6792352, “Limited Chemical Structural Diversity Found to Modulate Thyroid Hormone Receptor in the Tox21 Chemical Library” (Environmental Health Perspectives, 2019).

The structures appear in SMILES notation. Structures can show the parent of a compound that is named as a salt. Where only a bound is given, the exact number is not on record here.

This data set can be described thus: in vitro. The conditions noted are these: rat, gh3-tre-luc cells.

In general, CC50 refers to the concentration giving 50% cytotoxicity. Read a high CC50 as lower toxicity to the cells. Turning to `NS(=O)(=O)c1cc(C2(O)NC(=O)c3ccccc32)ccc1Cl` (stereo not shown) [Chlorthalidone], the CC50 at 24 h (AC50 (uM) modified / 1000) was more than 20 µM.

Consider `CN(Cc1ccccc1)Cc1ccccc1` [Dibemethine], for which the CC50 at 24 h (AC50 (uM) modified / 1000) was more than 50 µM.

Where the note is “AC50 (uM) modified / 1000”, `CN/C(=N\c1ccc(C2=NNC(=O)CC2C)cc1)NC#N` (stereo not shown) [Siguazodan] returned a CC50 at 24 h of more than 50 µM.

As for `CC1=Nc2ccccc2C1(C)C` [2,3,3-Trimethylindolenine], under “AC50 (uM) modified / 1000”, the CC50 at 24 h is more than 90 µM.

Where the note is “AC50 (uM) modified / 1000”, `CCCc1nc(C)c2c(=O)[nH]c(-c3cc(S(=O)(=O)N4CCN(CC)CC4)ccc3OCC)nn12` [Vardenafil citrate] gave a CC50 at 24 h of more than 50 µM.

On to `CC(/C=C1\SC(=S)N(CC(=O)O)C1=O)=C\c1ccccc1` [Epalrestat], for which the cytotoxic concentration (CC50) at 24 h (AC50 (uM) modified / 1000) came to 42.6 µM.

`CCCCC` [Pentane] had a 50% cytotoxic concentration (CC50) at 24 h (AC50 (uM) modified / 1000) of more than 90 µM.

For `Nc1cc(Cl)ccc1O` [2-Amino-4-chlorophenol], the CC50 at 24 h (AC50 (uM) modified / 1000) is 30.7 µM.

For the molecule `CC(C)(OO)c1ccccc1` [Cumene hydroperoxide], it took 79.6 µM to reach half-maximal cytotoxicity (AC50 (uM) modified / 1000) (CC50 at 24 h).

For `O=C(O)Cc1cccc(-c2cc(CCCCCCc3ccc(O[C@H]4O[C@H](CO)[C@@H](O)[C@H](O)[C@@H]4O)c(-c4cccc(CC(=O)O)c4)c3)ccc2O[C@H]2O[C@H](CO)[C@@H](O)[C@H](O)[C@@H]2O)c1` [Bimosiamose], under “AC50 (uM) modified / 1000”, the CC50 at 24 h was more than 50 µM.

`CC(C)(C)NCCNC(C)(C)C` [N,N'-Di-tert-butylethane-1,2-diamine] gave a CC50 at 24 h (AC50 (uM) modified / 1000) of more than 90 µM.

On to `CC1(C)C(C=C(Cl)Cl)C1C(=O)OCc1cccc(Oc2ccccc2)c1` (stereo not shown) [Permethrin], for which, where the note is “AC50 (uM) modified / 1000”, the CC50 at 24 h was more than 90 µM.

As for `C[N+](C)(C)CCOC(=O)CCC(=O)OCC[N+](C)(C)C` [Succinylcholine chloride], the CC50 at 24 h (AC50 (uM) modified / 1000) was more than 50 µM.

In turn, `COC(=O)C1=C(C)NC(C)=C(C(=O)OCC(C)=O)C1c1ccccc1[N+](=O)[O-]` (stereo not shown) [Aranidipine] yielded a 50% cytotoxic concentration (CC50) at 24 h (AC50 (uM) modified / 1000) of 8.18 µM.

`COC1=CC(=O)O[C@@H](CCc2ccccc2)C1` [Dihydrokavain]: under “AC50 (uM) modified / 1000”, the CC50 at 24 h is more than 100 µM.

Molecule `COc1cccc2c1C(=O)c1c(O)c3c(c(O)c1C2=O)C[C@@](O)(C(C)=O)C[C@@H]3O[C@H]1C[C@H](N)[C@H](O)[C@H](C)O1` [Daunomycin hydrochloride] had a CC50 at 24 h (AC50 (uM) modified / 1000) of 0.244 µM.

With `O=C1C=CC(=O)O1` [2,5-Furandione], the CC50 at 24 h (AC50 (uM) modified / 1000) is more than 100 µM.

`CC1=NC(C)OC1C` (stereo not shown) [2,4,5-Trimethyl-3-oxazoline] yielded a CC50 at 24 h (AC50 (uM) modified / 1000) of more than 90 µM.

Under “AC50 (uM) modified / 1000”, `Cc1ccc(O)c(C)c1` [2,4-Dimethylphenol] gave a CC50 at 24 h of more than 90 µM.

Where the note is “AC50 (uM) modified / 1000”, `NC(=S)C(N)=S` [Dithiooxamide] gave a 50% cytotoxic concentration (CC50) at 24 h of more than 90 µM.

As for `CN(C)c1ccc(O)c2c1C[C@H]1C[C@H]3[C@H](N(C)C)C(O)=C(C(N)=O)C(=O)[C@@]3(O)C(O)=C1C2=O` [Minocycline hydrochloride], where the note is “AC50 (uM) modified / 1000”, the CC50 at 24 h was more than 90 µM.

As for `Cc1cc(=O)c2c(O)c3c(O)cc(=O)c4c3c3c(cc(O)c1c23)C(C)(C)C=4O` [Geliomycin], the 50% cytotoxic concentration (CC50) at 24 h (AC50 (uM) modified / 1000) is 0.889 µM.

The molecule `COc1ccc2cc([C@H](C)CO)ccc2c1` [Naproxol] had a half-maximal cytotoxic concentration (CC50) at 24 h (AC50 (uM) modified / 1000) of more than 50 µM.

Turning to `Cc1ccc(N(C)C)cc1` [N,N,4-Trimethylaniline], where the note is “AC50 (uM) modified / 1000”, the CC50 at 24 h was more than 90 µM.

Turning to `Cn1c(N)nc2nc[nH]c2c1=O` [1-Methylguanine], for the setting “AC50 (uM) modified / 1000”, the CC50 at 24 h is more than 90 µM.

For the molecule `Cc1ccc(O)c(C(=O)c2ccccc2)c1` [2-Hydroxy-5-methylbenzophenone], the CC50 at 24 h (AC50 (uM) modified / 1000) was more than 90 µM.

For the molecule `CC(C)CC(C)N` (stereo not shown) [1,3-Dimethylbutylamine], the CC50 at 24 h (AC50 (uM) modified / 1000, Tox21_110001=Tox21_201157, viability, 1 nM T3 present, 24 h) was more than 90 µM.

Where the note is “AC50 (uM) modified / 1000”, `O=C(Nc1cccc(C2=NCCN2)c1)Nc1cccc(C2=NCCN2)c1` [Imidocarb dipropionate] had a CC50 at 24 h of more than 50 µM.

`O=C(CCNNC(=O)c1ccncc1)NCc1ccccc1` [Nialamide]: the CC50 at 24 h (AC50 (uM) modified / 1000) is more than 50 µM.

The molecule `OCCOc1ccc(OCCO)cc1` [2,2'-[1,4-Phenylenebis(oxy)]diethanol] gave a CC50 at 24 h (AC50 (uM) modified / 1000) of more than 90 µM.

Molecule `CCc1cccc(C)c1N(C(=O)CCl)[C@@H](C)COC` [S-Metolachlor] showed a CC50 at 24 h (AC50 (uM) modified / 1000) of more than 90 µM.
